Results as given in patent publication US6660310B2, “Method to infuse fresh fruits and vegetables with an agent” (American Moxie LLC, priority 2000, dated 2003).
Peptide text beside a SMILES is read from it.

Columns and labels:
[1] = system: GabaA, Benzodiazepine (Central) Site; assay: GabaA, Benzodiazepine (Central) Site Binding Assay; design: species or system Bovine
[2] = extracts from Experiment 5; tested only in apple and strawberry
[3] = Taste test: sweetness of materials infused with sweetening agents; settings: apples, strawberries
Text: Apples, strawberries, carrots and celery were infused with either aspartame or saccharin with standard procedures, as described above, and sweetness was compared with untreated control. […] Clearly an optimal amount of sweetening agent would be lower. The taste test was repeated using a 0.2% concentration of each sweetening agent with the four biological materials.

[4] = Taste test: taste or "heat" of materials infused with capsaicin; settings: carrots, apples and squash infused with 2% capsaicin
Text: Carrots, apples and squash were infused with 2% capsaicin (the active constituent of cayenne pepper) with standard procedures, as described above, and the taste or “heat” of the infused materials was compared with untreated control materials.

[5] = carrots and celery infused with standard procedures
[6] = carrots and celery, 0.2% concentration of sweetening agent

SMILES | sweetness compared with untreated control [3, 5] | sweetness compared with untreated control [3, 6] | further results
CN1C(=O)CN=C(c2ccccc2F)c2cc([N+](=O)[O-])ccc21 [Flunitrazepam, flunitrazepam] | – | – | specific binding of extract containing the infused agent ([1]; extracts from Experiment 5, tested only in celery and tomato): demonstrated specific binding
C[C@]1(O)CC[C@H]2[C@@H]3CCC4=CC(=O)CCC4=C3C=C[C@@]21C [Methyltrienolone, methyltrienolone] | – | – | specific binding of extract containing the infused agent [2]: demonstrated specific binding
CN1C(=O)CN=C(c2ccccc2F)c2cc([N+](=O)[O-])ccc21 [[^3H] Flunitrazepam] | – | – | Kd ([1]; assay characteristic of the radioligand, bovine cortical membranes, read-out: KD (binding affinity)): 1.4 nM
COC(=O)[C@H](Cc1ccccc1)NC(=O)[C@@H](N)CC(=O)O [aspartame] (H-Asp-Phe-OMe) | markedly and significantly sweeter | significantly enhanced over the untreated controls | –
COc1cc(CNC(=O)CCCCC=CC(C)C)ccc1O [capsaicin, 8-methyl-N-vanillyl-6-nonenamide] | – | – | taste or "heat" compared with untreated control [4]: markedly and significantly “hotter”
O=C1NS(=O)(=O)c2ccccc21 [saccharin] | markedly and significantly sweeter | significantly enhanced over the untreated controls | –
